{"source": "patent US5858371A", "about": "“Pharmaceutical composition for the control and treatment of anorectal and colonic diseases” (Panacea Biotech Limited, priority 1997, dated 1999)", "key": {"[1]": {"test_system": "granulocyte infiltration (MPO activity)", "assay": "Granulocyte/leucocyte infiltration (MPO activity), croton oil ear", "type": "in vivo, mice", "conditions": "for leukocyte infiltration: measured as myeloperoxidase activity; for Effect on granulocyte infiltration (MPO activity): apigenin glycoside 0.37, luteolin glycoside 0.27, indomethacin 1.26, hydrocortisone 0.41 μMol, one unit = 1 nMol/min. of tetraguaiacol at 25° C.", "method": "Effect on granulocyte infiltration (MPO activity).\nOne unit = 1 nMol/min. of tetraguaiacol formed at 25° C. p < 0.05\nThe inflammation appears to naturally suppress after 30 hours."}, "[2]": {"test_system": "croton-oil induced ear oedema", "assay": "Croton oil ear test (topical; oedema)", "type": "in vivo, mice", "conditions": "for Effect on Oedema Development: apigenin glycoside 0.037, luteolin glycoside 0.27, indomethacin 1.26, hydrocortisone 0.41 μMol, means ± s.e.; for Activity Ratio on Molar basis: Indomethacin = 1", "from_the_text": "The test used was described in published literature, where apigenin 7-glucoside was used as a reference sample.\nIndomethacin and hydrocortisone were used as the reference drugs."}, "[3]": {"test_system": "mast cell histamine secretion", "conditions": "cited from earlier work"}, "cotton pellet granuloma": {"test_system": "cotton pellet granuloma", "conditions": "in vivo; cited from earlier work"}, "neutrophil functions": {"test_system": "neutrophil functions", "conditions": "cited from earlier work"}, "[4]": {"test_system": "Carrageenan-induced Mice Paw Oedema", "assay": "Carrageenan-induced paw oedema, topical application", "type": "in vivo", "method": "Carrageenan-induced Pedal Oedema Test:\nModification of Carrageenan-induced Mice Paw Oedema following Topical\nApplication of the Standardized Extract and Indomethacin.\nThe duration of action of topical preparation was determined by studying the effects of different concentrations of the drug on oedema over a period of 8 hr. As evident from the Table 3, the peak inhibition was observed after 3-4 hours of carrageenan injection beginning at 2 hr for the extract at lower concentrations (0.5-2.0%) and 1 hr. at 4% concentration."}, "[5]": {"test_system": "Carrageenan-induced Pedal Oedema", "assay": "Carrageenan-induced pedal oedema in rats, oral extract / i.p. indomethacin", "type": "in vivo", "conditions": "for Oedema + SEM (%): N=6", "from_the_text": "Carrageenan-induced oedema is a biphasic event, the early hypermia being due to the release of histamine and serotonin and the delayed oedema due to the release of bradykinin and prostaglandins.\nModification of Carrageenan-induced Pedal Oedema in Rats following oral\nAdministration of the extract and Intraperitoneal treatment with […]"}}}
{"smiles": "O=c1cc(-c2ccc(O)cc2)oc2cc(O)cc(O)c12", "note": "[Apigenin, apigenin]", "values": [{"measurement": "leukocyte infiltration", "setting": "[1]", "result": "decrease leukocyte infiltration"}]}
{"smiles": "C[C@]12CCC(=O)C=C1CC[C@@H]1[C@@H]2[C@@H](O)C[C@@]2(C)[C@H]1CC[C@]2(O)C(=O)CO", "note": "[Hydrocortisone]", "values": [{"measurement": "Effect on granulocyte infiltration (MPO activity)", "setting": "[1]; 6 hours after treatment", "result": "0.0 ± 0.2", "unit": "unit"}, {"measurement": "Effect on granulocyte infiltration (MPO activity)", "setting": "[1]; 18 hours after treatment", "result": "6.9 ± 2.1", "unit": "unit"}, {"measurement": "Effect on granulocyte infiltration (MPO activity)", "setting": "[1]; 30 hours after treatment", "result": "8.2 ± 2.4", "unit": "unit"}, {"measurement": "Effect on Oedema Development", "setting": "[2]; 6 hours after treatment", "result": "0.5 ± 0.2", "unit": "mg"}, {"measurement": "duration of antiinflammatory activity", "setting": "[2]; 18 hours after treatment", "result": "maintain their effect to a certain extent"}, {"measurement": "Effect on Oedema Development", "setting": "[2]; 18 hours after treatment", "result": "0.7 ± 0.1", "unit": "mg"}, {"measurement": "Effect on Oedema Development", "setting": "[2]; 30 hours after treatment", "result": "0.7 ± 0.1", "unit": "mg"}, {"measurement": "Activity Ratio on Molar basis", "setting": "[2]", "result": 14.00}]}
{"smiles": "O=c1c(O)c(-c2ccc(O)c(O)c2)oc2cc(O)cc(O)c12", "note": "[Quercetin, quercetin]", "values": [{"measurement": "mast cell histamine secretion", "setting": "[3]", "result": "inhibits mast cell histamine secretion"}, {"measurement": "exudative and proliferative phases of cotton pellet granuloma", "setting": "cotton pellet granuloma", "result": "control significantly the exudative and the proliferative phases of the cotton pellet granuloma"}, {"measurement": "neutrophil functions: release of lysosomal enzymes, oxygen consumption, generation of free radicals and chemotaxis", "setting": "neutrophil functions", "result": "inhibits mast cell histamine secretion (Benett, J. P., Gomperts, B. D. and Wollenweber, E., Arzneim. Forsch., 31, 433, 1981), neutrophil functions such as release of lysosomal enzymes, oxygen consumption, generation of free radicals and chemotaxis"}, {"measurement": "Activity Ratio on Molar basis", "setting": "[2]", "result": 0.65}]}
{"smiles": "O=c1cc(-c2ccc(O)cc2)oc2cc(O[C@@H]3O[C@H](CO)[C@@H](O)[C@H](O)[C@H]3O)cc(O)c12", "note": "[Apigenin-7-glucoside]", "values": [{"measurement": "Activity Ratio on Molar basis", "setting": "[2]", "result": 0.32}]}
{"smiles": "C[C@@H]1O[C@@H](OC[C@H]2O[C@@H](Oc3c(-c4ccc(O)c(O)c4)oc4cc(O)cc(O)c4c3=O)[C@H](O)[C@@H](O)[C@@H]2O)[C@H](O)[C@H](O)[C@H]1O", "note": "[Rutin]", "values": [{"measurement": "Activity Ratio on Molar basis", "setting": "[2]", "result": 0.28}]}
{"smiles": "O=c1cc(-c2ccc(O)c(O)c2)oc2cc(O)cc(O)c12", "note": "[luteolin]", "values": [{"measurement": "leukocyte infiltration", "setting": "[1]", "result": "decrease leukocyte infiltration and luteolin maintained its effect even after 18 hours of treatment"}]}
{"smiles": "COc1ccc2c(c1)c(CC(=O)O)c(C)n2C(=O)c1ccc(Cl)cc1", "note": "[Indomethacin]", "values": [{"measurement": "inhibition of carrageenan-induced paw oedema", "setting": "[4]; Indomethacin line printed at dose 1.00, +60 m, N=6", "result": 30.3, "unit": "%"}, {"measurement": "inhibition of carrageenan-induced paw oedema", "setting": "[4]; Indomethacin line printed at dose 1.00, +120 m, N=6", "result": 28.0, "unit": "%"}, {"measurement": "inhibition of carrageenan-induced paw oedema", "setting": "[4]; Indomethacin line printed at dose 1.00, +180 m, N=6", "result": 46.8, "unit": "%"}, {"measurement": "inhibition of carrageenan-induced paw oedema", "setting": "[4]; Indomethacin line printed at dose 1.00, +240 m, N=6", "result": 21.2, "unit": "%"}, {"measurement": "inhibition of carrageenan-induced paw oedema", "setting": "[4]; Indomethacin line printed at dose 1.00, +360 m, N=6", "result": 11.5, "unit": "%"}, {"measurement": "inhibition of carrageenan-induced paw oedema", "setting": "[4]; Indomethacin line printed at dose 1.00, +480 m, N=6", "result": 13.9, "unit": "%"}, {"measurement": "inhibition of carrageenan-induced paw oedema", "setting": "[4]; Indomethacin line printed at dose 2.00, +60 m, N=6", "result": 18.2, "unit": "%"}, {"measurement": "inhibition of carrageenan-induced paw oedema", "setting": "[4]; Indomethacin line printed at dose 2.00, +120 m, N=6", "result": 24.0, "unit": "%"}, {"measurement": "inhibition of carrageenan-induced paw oedema", "setting": "[4]; Indomethacin line printed at dose 2.00, +180 m, N=6", "result": 29.0, "unit": "%"}, {"measurement": "inhibition of carrageenan-induced paw oedema", "setting": "[4]; Indomethacin line printed at dose 2.00, +240 m, N=6", "result": 21.2, "unit": "%"}, {"measurement": "inhibition of carrageenan-induced paw oedema", "setting": "[4]; Indomethacin line printed at dose 2.00, +360 m, N=6", "result": 9.6, "unit": "%"}, {"measurement": "inhibition of carrageenan-induced paw oedema", "setting": "[4]; Indomethacin line printed at dose 2.00, +480 m, N=6", "result": 4.6, "unit": "%"}, {"measurement": "inhibition", "setting": "[4]; indomethacin 2 percent concentration", "result": 41.9, "unit": "%"}, {"measurement": "inhibition of carrageenan-induced paw oedema", "setting": "[4]; last line, no dose given, +60 m", "result": 24.2, "unit": "%"}, {"measurement": "inhibition of carrageenan-induced paw oedema", "setting": "[4]; last line, no dose given, +120 m", "result": 26.0, "unit": "%"}, {"measurement": "inhibition of carrageenan-induced paw oedema", "setting": "[4]; last line, no dose given, +180 m", "result": 41.9, "unit": "%"}, {"measurement": "inhibition of carrageenan-induced paw oedema", "setting": "[4]; last line, no dose given, +240 m", "result": 36.4, "unit": "%"}, {"measurement": "inhibition of carrageenan-induced paw oedema", "setting": "[4]; last line, no dose given, +360 m", "result": 11.5, "unit": "%"}, {"measurement": "inhibition of carrageenan-induced paw oedema", "setting": "[4]; last line, no dose given, +480 m", "result": 10.6, "unit": "%"}, {"measurement": "Effect on granulocyte infiltration (MPO activity)", "setting": "[1]; 6 hours after treatment", "result": "0.0 ± 0.1", "unit": "unit"}, {"measurement": "Effect on granulocyte infiltration (MPO activity)", "setting": "[1]; 18 hours after treatment", "result": "10.0 ± 1.6", "unit": "unit"}, {"measurement": "Effect on granulocyte infiltration (MPO activity)", "setting": "[1]; 30 hours after treatment", "result": "6.8 ± 3.4", "unit": "unit"}, {"measurement": "Oedema + SEM (%)", "setting": "[5]; indomethacin 0.5 mg/Kg i.p., +30 min", "result": "13.6 ± 4.0", "unit": "%"}, {"measurement": "Oedema + SEM (%)", "setting": "[5]; indomethacin 0.5 mg/Kg i.p., +60 min", "result": "18.9 ± 4.0", "unit": "%"}, {"measurement": "Oedema + SEM (%)", "setting": "[5]; indomethacin 0.5 mg/Kg i.p., +120 min", "result": "28.8 ± 4.2", "unit": "%"}, {"measurement": "Oedema + SEM (%)", "setting": "[5]; indomethacin 1.0 mg/Kg i.p., +30 min", "result": "9.3 ± 2.3", "unit": "%"}, {"measurement": "Oedema + SEM (%)", "setting": "[5]; indomethacin 1.0 mg/Kg i.p., +60 min", "result": "12.3 ± 2.2", "unit": "%"}, {"measurement": "Oedema + SEM (%)", "setting": "[5]; indomethacin 1.0 mg/Kg i.p., +120 min", "result": "16.4 ± 1.6", "unit": "%"}, {"measurement": "inhibition of oedema", "setting": "[5]; indomethacin 1 mg/kg i.p.", "result": 74, "unit": "%"}, {"measurement": "Oedema + SEM (%)", "setting": "[5]; indomethacin 2.0 mg/Kg i.p., +30 min", "result": "8.2 ± 1.5", "unit": "%"}, {"measurement": "Oedema + SEM (%)", "setting": "[5]; indomethacin 2.0 mg/Kg i.p., +60 min", "result": "12.8 ± 1.8", "unit": "%"}, {"measurement": "Effect on Oedema Development", "setting": "[2]; 6 hours after treatment", "result": "0.0 ± 0.1", "unit": "mg"}, {"measurement": "duration of antiinflammatory activity", "setting": "[2]; 18 hours after treatment", "result": "lose their antiinflammatory activity 18 hours after treatment"}, {"measurement": "Effect on Oedema Development", "setting": "[2]; 18 hours after treatment", "result": "3.1 ± 0.4", "unit": "mg"}, {"measurement": "Effect on Oedema Development", "setting": "[2]; 30 hours after treatment", "result": "0.5 ± 0.1", "unit": "mg"}]}
